Experiments:
[1] = Water content measured by KF titration; format: physicochemical
[2] = Weight loss measured by TGA; format: physicochemical

SMILES	water content, as measured by KF titration [1]	weight loss, as measured by TGA ([2]; between 25-168° C.)	weight loss, as measured by TGA ([2]; between 25-145° C.)	weight loss, as measured by TGA ([2]; between 25-155° C.)
Cc1nc2n(c(=O)c1CCN1CCC(c3noc4cc(F)ccc34)CC1)CCCC2O (centres unmarked) [Form I, 3-[2-[4-(6-fluorobenzo[d]isoxazol-3-yl)-1-piperidyl]ethyl]-7-hydroxy-4-methyl-1,5-diazabicyclo[4.4.0]deca-3,5-dien-2-one]	about 0.5%	about 0.6%		
Cc1nc2n(c(=O)c1CCN1CCC(c3noc4cc(F)ccc34)CC1)CCCC2O (centres unmarked) [Form II, 3-[2-[4-(6-fluorobenzo[d]isoxazol-3-yl)-1-piperidyl]ethyl]-7-hydroxy-4-methyl-1,5-diazabicyclo[4.4.0]deca-3,5-dien-2-one]	about 0.5%		about 0.4%	
Cc1nc2n(c(=O)c1CCN1CCC(c3noc4cc(F)ccc34)CC1)CCCC2O (centres unmarked) [Form III, 3-[2-[4-(6-fluorobenzo[d]isoxazol-3-yl)-1-piperidyl]ethyl]-7-hydroxy-4-methyl-1,5-diazabicyclo[4.4.0]deca-3,5-dien-2-one]	about 0.2%	about 19.2%		
Cc1nc2n(c(=O)c1CCN1CCC(c3noc4cc(F)ccc34)CC1)CCCC2O (centres unmarked) [Form V, 3-[2-[4-(6-fluorobenzo[d]isoxazol-3-yl)-1-piperidyl]ethyl]-7-hydroxy-4-methyl-1,5-diazabicyclo[4.4.0]deca-3,5-dien-2-one]	about 0.3%			about 0.1%

Source: patent US20080177067A1, “Crystal forms of 9-hydroxy-risperidone (paliperidone)” (priority 2006, published 2008)
